Data published in PubChem BioAssay (NCI).
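Method: 48-hour compound exposure of cells in 96-well plates, five concentrations, linear interpolation of endpoints. TGI denotes the concentration required for complete inhibition of growth.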

Assays:
Experiment in all cases: NCI-60 cell line screen, 48 h
A498 renal = system: A498 renal
A549 NSCLC = system: A549 NSCLC
ACHN renal = system: ACHN renal
HOP-92 NSCLC = system: HOP-92 NSCLC
KM12 colon = system: KM12 colon
MCF7 breast = system: MCF7 breast
MDA-MB-435 = system: MDA-MB-435
MDA-N = system: MDA-N
MOLT-4 leukemia = system: MOLT-4 leukemia
PC-3 prostate = system: PC-3 prostate
SNB-75 CNS = system: SNB-75 CNS
SW-620 colon = system: SW-620 colon
T-47D breast = system: T-47D breast
TK-10 renal = system: TK-10 renal
U251 CNS = system: U251 CNS
UACC-62 melanoma = system: UACC-62 melanoma
NCI-H226 lung = system: NCI-H226 lung
M14 melanoma = system: M14 melanoma
MDA-MB-231 breast = system: MDA-MB-231 breast
BT-549 breast = system: BT-549 breast

Measured: TGI

CC(C)N1CSC(=S)N(Cc2ccccc2)C1
7.44 µM: MDA-N
8.39 µM: HOP-92 NSCLC
7.43 µM: MOLT-4 leukemia
not listed: NCI-H226 lung | M14 melanoma | MDA-MB-231 breast | BT-549 breast
> 10 µM: all other assays above

CCOC(=O)CN1CCSC1=NC#N
> 100 µM: A498 renal | A549 NSCLC | HOP-92 NSCLC | KM12 colon | MCF7 breast | MOLT-4 leukemia | NCI-H226 lung | SNB-75 CNS | SW-620 colon | U251 CNS | UACC-62 melanoma

CCOC(=O)N1CCN(C(=O)Nc2cccc3ccccc23)CC1
not listed: HOP-92 NSCLC | BT-549 breast
> 10 µM: all other assays above

O=C(Nc1ccc([N+](=O)[O-])cc1)C(=O)C(C(=O)c1ccccc1F)C1OC(=O)c2ccccc21 (stereo unspecified)
39.9 µM: U251 CNS
96.4 µM: SNB-75 CNS
59.8 µM: NCI-H226 lung
not listed: MCF7 breast | MDA-MB-435 | MDA-N | PC-3 prostate | T-47D breast | MDA-MB-231 breast | BT-549 breast
> 100 µM: all other assays above

O=C1CCC[C@H]2O[C@@H](COCc3ccccc3)C[C@@H]12
not listed: BT-549 breast
> 100 µM: all other assays above

CC(C)=CCC/C(C)=C/Cc1c(O)ccc2c1[nH]c1cc(O)c(C)cc12
> 25 µM: A549 NSCLC | ACHN renal | HOP-92 NSCLC | KM12 colon | M14 melanoma | MOLT-4 leukemia | NCI-H226 lung | SW-620 colon | TK-10 renal | U251 CNS | UACC-62 melanoma

CCOC(CCCN1CCC2(CC1)C(=O)N(C)CN2c1ccccc1)(OCC)c1ccc(F)cc1
22.6 µM: MOLT-4 leukemia
29.8 µM: T-47D breast
29.3 µM: MDA-MB-231 breast
29.5 µM: KM12 colon
23.9 µM: A549 NSCLC | M14 melanoma
26.3 µM: U251 CNS
34.3 µM: UACC-62 melanoma
43.8 µM: SNB-75 CNS
29.6 µM: PC-3 prostate
28.6 µM: ACHN renal
28.7 µM: SW-620 colon
24.5 µM: MDA-N
13.8 µM: MCF7 breast
33.6 µM: NCI-H226 lung
22.2 µM: TK-10 renal

O=C(CC(C(=O)c1ccsc1)c1ccccc1)c1cccs1 (stereo unspecified)
79.6 µM: MCF7 breast
45.3 µM: T-47D breast
88.6 µM: KM12 colon
not listed: A549 NSCLC | PC-3 prostate | BT-549 breast
> 100 µM: all other assays above

COc1cc2c(c(OC)c1OC)C(=O)[C@H]1OC(=O)N[C@@H]21
not listed: MDA-N | BT-549 breast
> 100 µM: all other assays above

CC1=NN(C(=O)c2ccc(Cl)cc2)C(=O)/C1=C/c1cccc([N+](=O)[O-])c1
> 100 µM: A498 renal | A549 NSCLC | ACHN renal | HOP-92 NSCLC | KM12 colon | M14 melanoma | SW-620 colon | TK-10 renal | U251 CNS | UACC-62 melanoma

CCN1C(=O)C(=Cc2ccc(-c3ccccc3)cc2)C(=O)N(CC)C1=S
not listed: A498 renal | MDA-N
> 100 µM: all other assays above

O=C(CC(C(=O)c1cccs1)c1ccsc1)c1ccsc1 (stereo unspecified)
57.9 µM: A498 renal
50.8 µM: M14 melanoma
not listed: MDA-N | NCI-H226 lung
> 100 µM: all other assays above

O=C1CCc2cc3c(cc21)CC1(Cc2ccccc2C1)C3
35.6 µM: HOP-92 NSCLC
66.6 µM: A498 renal
67.7 µM: NCI-H226 lung
> 60.8 µM: SNB-75 CNS
12.7 µM: MOLT-4 leukemia
5.92 µM: MDA-MB-435
> 93.6 µM: PC-3 prostate
> 88.3 µM: UACC-62 melanoma
> 91.7 µM: ACHN renal
4.76 µM: MDA-N
not listed: BT-549 breast
> 100 µM: all other assays above

O=C1C(=O)N(C2CCCCC2)C(=S)N1C1CCCCC1
not listed: MCF7 breast | M14 melanoma | BT-549 breast
> 100 µM: all other assays above
